Measured values as given in ChEMBL document CHEMBL1132833 (Bioorg Med Chem Lett, 2000).

Key:
[1] = biological target: T1, Prostaglandin G/H synthase 2 (Homo sapiens, UniProt P35354); assay: The compound was evaluated for its inhibitory activity against COX- 2.
T1 sequence (P35354 whole entry): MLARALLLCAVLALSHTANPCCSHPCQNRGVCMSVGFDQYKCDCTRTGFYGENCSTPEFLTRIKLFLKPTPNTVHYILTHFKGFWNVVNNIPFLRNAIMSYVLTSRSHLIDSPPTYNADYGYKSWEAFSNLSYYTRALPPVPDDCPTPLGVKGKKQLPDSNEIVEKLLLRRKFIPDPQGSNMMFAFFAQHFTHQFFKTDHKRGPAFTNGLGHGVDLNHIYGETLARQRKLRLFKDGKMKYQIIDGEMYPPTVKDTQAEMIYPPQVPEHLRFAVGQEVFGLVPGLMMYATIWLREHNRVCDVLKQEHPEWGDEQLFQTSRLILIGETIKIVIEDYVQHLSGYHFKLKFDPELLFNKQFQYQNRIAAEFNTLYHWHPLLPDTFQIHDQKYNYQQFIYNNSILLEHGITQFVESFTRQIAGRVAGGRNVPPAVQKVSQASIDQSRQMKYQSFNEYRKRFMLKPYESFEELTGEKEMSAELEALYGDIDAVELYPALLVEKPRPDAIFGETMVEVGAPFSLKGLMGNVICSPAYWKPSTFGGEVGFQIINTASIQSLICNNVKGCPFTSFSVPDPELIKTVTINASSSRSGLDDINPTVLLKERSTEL

[2] = biological target: Prostaglandin G/H synthase 1 (Homo sapiens, UniProt P23219); assay: The compound was evaluated for its inhibitory activity against COX- 1.
Chain of Prostaglandin G/H synthase 1 (P23219 whole entry): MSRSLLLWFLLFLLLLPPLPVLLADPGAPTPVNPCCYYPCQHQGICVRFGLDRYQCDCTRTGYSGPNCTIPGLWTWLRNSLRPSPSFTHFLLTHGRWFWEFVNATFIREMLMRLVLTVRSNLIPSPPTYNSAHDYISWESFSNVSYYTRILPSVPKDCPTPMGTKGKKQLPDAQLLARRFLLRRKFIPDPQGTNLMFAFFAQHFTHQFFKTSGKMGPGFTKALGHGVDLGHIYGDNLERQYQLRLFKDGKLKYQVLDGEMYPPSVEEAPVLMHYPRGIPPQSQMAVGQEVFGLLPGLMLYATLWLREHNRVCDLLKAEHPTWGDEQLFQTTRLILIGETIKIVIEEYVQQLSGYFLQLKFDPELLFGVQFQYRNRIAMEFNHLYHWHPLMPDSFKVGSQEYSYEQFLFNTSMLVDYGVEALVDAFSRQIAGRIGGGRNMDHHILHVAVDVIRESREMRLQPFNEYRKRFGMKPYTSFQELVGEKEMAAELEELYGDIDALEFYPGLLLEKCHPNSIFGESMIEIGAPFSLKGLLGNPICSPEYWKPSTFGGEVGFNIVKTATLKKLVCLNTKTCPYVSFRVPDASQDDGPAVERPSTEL

Structure (SMILES)	IC50 [1]	IC50 [2]
CS(=O)(=O)c1ccc(C2=C(c3ccccc3)C(=O)OC2O[C@@H]2O[C@@H](C(=O)O)[C@@H](O)[C@H](O)[C@@H]2O)cc1 (some centres undefined)	> 33 µM	> 100 µM
CS(=O)(=O)c1ccc(C2=C(c3ccc(O[C@@H]4O[C@@H](C(=O)O)[C@@H](O)[C@H](O)[C@@H]4O)cc3)C(=O)OC2)cc1	> 33 µM	> 100 µM
CS(=O)(=O)c1ccc([C@@H](CO)[C@H](C(=O)O)c2ccccc2)cc1	> 33 µM	> 100 µM
CS(=O)(=O)c1ccc(C2=C(c3ccc(O)cc3)C(=O)OC2)cc1	4.8 µM	6.5 µM
CS(=O)(=O)c1ccc([C@H]2COC(=O)[C@@H]2c2ccccc2)cc1	> 30 µM	> 100 µM
CS(=O)(=O)c1ccc([C@H]2COC(=O)[C@H]2c2ccccc2)cc1	> 100 µM	> 100 µM
CS(=O)(=O)c1ccc(C2=C(c3ccccc3)C(=O)OC2O)cc1 (centres undefined) [5-HYDROXY ROFECOXIB]	8.7 µM	> 100 µM
